Test results as given in ChEMBL document CHEMBL1201862, “PubChem BioAssay data set” (2004).
“And” between values parts separate entries of the source, which are not always exact repeats. Equal values may be shown once. The source made the active and inactive calls.

How the values were obtained:
[1] = A cytotoxicity screen of small molecule inhibitors of the PhoP region in Salmonella typhi identified in the primary screen. [Related pubchem assays: 1850, 1864, 1985 ]; assay type: functional
[2] = target: Heat shock protein HSP 90-alpha (Homo sapiens, UniProt P07900); assay type: functional, organism-based
[3] = target: T1, High affinity choline transporter 1 (Homo sapiens, UniProt Q9GZV3); assay: CHT inhibitors, dose response, cell-based, 5-point CRC, membrane potential dye (AID 504840); assay type: functional
T1 sequence (Q9GZV3 whole entry): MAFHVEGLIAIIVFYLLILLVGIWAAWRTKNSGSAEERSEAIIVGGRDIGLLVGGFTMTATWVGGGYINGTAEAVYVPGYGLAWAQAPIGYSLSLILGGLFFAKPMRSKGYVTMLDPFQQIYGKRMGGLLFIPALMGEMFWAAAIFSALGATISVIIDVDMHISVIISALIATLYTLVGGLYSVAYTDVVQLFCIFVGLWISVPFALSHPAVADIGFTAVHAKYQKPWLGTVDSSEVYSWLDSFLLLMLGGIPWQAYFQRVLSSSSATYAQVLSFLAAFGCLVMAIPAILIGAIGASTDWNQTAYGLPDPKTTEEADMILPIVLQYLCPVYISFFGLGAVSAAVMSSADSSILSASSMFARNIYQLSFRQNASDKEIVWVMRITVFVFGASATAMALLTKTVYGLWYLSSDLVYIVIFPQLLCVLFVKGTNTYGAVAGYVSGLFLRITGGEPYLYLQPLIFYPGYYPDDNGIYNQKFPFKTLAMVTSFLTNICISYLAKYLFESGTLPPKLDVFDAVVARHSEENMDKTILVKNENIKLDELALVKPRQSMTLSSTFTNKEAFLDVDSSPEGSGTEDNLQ

H9c2 = assay: cells; assay type: functional, cell-based; conditions: Rattus norvegicus, H9c2, Myocardium;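 also: confirmatory concentration-response retest of ultra-high-throughput screening hits for modulation of myocardial damage; cell death induced by hydrogen peroxide oxidative stress; compound pretreatment for 60 min then peroxide exposure for 2 h; potency is for protecting the cells against peroxide damage rather than for killing them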
[4] = target: T1, High affinity choline transporter 1; assay: CHT inhibitors, dose response, cell-based, 10-point CRC, membrane potential dye (AID 588401); assay type: functional;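 also: membrane potential dye fluorescence of choline-evoked depolarization via CHT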
HEK293 [5] = assay: cells; assay type: functional, cell-based; conditions: Homo sapiens
[6] = target: T2, Nuclear receptor subfamily 0 group B member 1 (Homo sapiens, UniProt P51843); assay: Luminescence-based cell-based high throughput dose response assay for inhibitors of the orphan nuclear receptor subfamily 0, group B, member 1 (DAX1; NR0B1). [Related pubchem assays (depositor defined):AID504766, AID504790]; assay type: functional
T2 sequence (P51843 whole entry): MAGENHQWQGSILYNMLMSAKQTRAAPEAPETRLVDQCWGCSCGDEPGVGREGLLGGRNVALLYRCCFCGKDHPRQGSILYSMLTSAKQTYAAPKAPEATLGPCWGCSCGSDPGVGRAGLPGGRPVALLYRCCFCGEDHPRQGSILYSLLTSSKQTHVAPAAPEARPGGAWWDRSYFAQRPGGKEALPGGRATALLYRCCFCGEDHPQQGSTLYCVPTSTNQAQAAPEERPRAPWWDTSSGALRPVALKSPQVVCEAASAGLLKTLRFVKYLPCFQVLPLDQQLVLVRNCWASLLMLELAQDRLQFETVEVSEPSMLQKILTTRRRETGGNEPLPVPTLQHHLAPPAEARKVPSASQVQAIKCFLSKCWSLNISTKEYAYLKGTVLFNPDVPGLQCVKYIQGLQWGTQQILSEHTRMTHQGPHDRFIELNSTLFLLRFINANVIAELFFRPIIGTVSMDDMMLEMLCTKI

[7] = target: Dual specificity protein kinase CLK1 (Homo sapiens, UniProt P49759); assay: CLK1 kinase inhibitors, off-target check, dose response, selectivity assay for Dyrk1A inhibitor project, biochemical, cherry-picked samples (AID 588811)
Chain of Dual specificity protein kinase CLK1 (P49759 whole entry): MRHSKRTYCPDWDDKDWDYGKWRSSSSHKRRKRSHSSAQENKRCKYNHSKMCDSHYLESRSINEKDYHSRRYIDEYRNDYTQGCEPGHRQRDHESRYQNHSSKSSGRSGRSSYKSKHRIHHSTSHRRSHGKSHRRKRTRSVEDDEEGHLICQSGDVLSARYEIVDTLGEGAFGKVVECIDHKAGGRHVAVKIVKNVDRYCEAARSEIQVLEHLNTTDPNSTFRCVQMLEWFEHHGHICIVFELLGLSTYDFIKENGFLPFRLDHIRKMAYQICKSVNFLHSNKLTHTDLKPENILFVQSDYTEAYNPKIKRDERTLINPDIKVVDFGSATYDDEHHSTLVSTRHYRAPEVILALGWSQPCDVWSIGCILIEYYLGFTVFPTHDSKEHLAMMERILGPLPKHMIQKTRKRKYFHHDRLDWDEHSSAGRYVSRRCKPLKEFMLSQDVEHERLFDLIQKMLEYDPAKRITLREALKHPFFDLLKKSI

[8] = target: T3, Corticotropin-releasing factor receptor 2/Corticotropin-releasing factor-binding protein (Homo sapiens, UniProt P24387+Q13324); assay: Dose Response confirmation of uHTS hits for small molecule antagonists of the CRF-binding protein and CRF-R2 receptor complex.; assay type: functional; conditions: read-out: IC50_Mean
T3 sequence (Q13324 whole entry): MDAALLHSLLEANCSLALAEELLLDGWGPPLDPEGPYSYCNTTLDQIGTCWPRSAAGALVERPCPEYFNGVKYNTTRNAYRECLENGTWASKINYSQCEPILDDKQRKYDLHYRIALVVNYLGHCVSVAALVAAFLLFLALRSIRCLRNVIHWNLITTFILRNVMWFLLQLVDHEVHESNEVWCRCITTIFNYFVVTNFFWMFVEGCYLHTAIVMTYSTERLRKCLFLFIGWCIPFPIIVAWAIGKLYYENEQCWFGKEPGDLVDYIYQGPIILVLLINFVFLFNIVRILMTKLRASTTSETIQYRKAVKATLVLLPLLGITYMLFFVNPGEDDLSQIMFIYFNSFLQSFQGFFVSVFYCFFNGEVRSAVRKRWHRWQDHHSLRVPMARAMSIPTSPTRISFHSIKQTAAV
T3 sequence (P24387 whole entry): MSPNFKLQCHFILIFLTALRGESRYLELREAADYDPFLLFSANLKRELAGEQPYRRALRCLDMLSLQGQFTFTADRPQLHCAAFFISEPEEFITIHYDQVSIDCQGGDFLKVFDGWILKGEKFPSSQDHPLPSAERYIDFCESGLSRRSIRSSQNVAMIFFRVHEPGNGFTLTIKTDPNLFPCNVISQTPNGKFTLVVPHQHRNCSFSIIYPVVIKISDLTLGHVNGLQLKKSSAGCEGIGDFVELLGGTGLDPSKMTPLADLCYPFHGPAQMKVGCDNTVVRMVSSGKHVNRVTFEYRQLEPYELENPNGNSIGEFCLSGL

[9] = target: T3, Corticotropin-releasing factor receptor 2/Corticotropin-releasing factor-binding protein; assay: activators of CRF receptor 2 with binding protein – uHTS hits, confirmation (AID 602473); assay type: functional; conditions: read-out: EC50_Mean
[10] = CRF-BP/CRF-R2 complex antagonists, dose response, cell-based, uHTS hits, 384-well (AID 651639); assay type: functional, Homo sapiens; conditions: read-out: IC50_Mean
HEK293 [11] = assay: NOD1 signaling inhibitors, primary screen, cell-based, luminescence, uHTS (AID 1578); assay type: functional; conditions: Homo sapiens
HEK293 [12] = assay: cells; assay type: functional, cell-based; conditions: Homo sapiens; remark: listed apart in the source
HEK293 [13] = assay: cells; assay type: functional, cell-based; conditions: Homo sapiens; remark: listed apart in the source
[14] = target: Nucleotide-binding oligomerization domain-containing protein 2 (Homo sapiens, UniProt Q9HC29); assay: NOD2 signaling inhibitors, cell-based, luminescence, uHTS, HEK293 (AID 1566); assay type: functional
Chain of Nucleotide-binding oligomerization domain-containing protein 2 (Q9HC29 whole entry, the tested form may be a part): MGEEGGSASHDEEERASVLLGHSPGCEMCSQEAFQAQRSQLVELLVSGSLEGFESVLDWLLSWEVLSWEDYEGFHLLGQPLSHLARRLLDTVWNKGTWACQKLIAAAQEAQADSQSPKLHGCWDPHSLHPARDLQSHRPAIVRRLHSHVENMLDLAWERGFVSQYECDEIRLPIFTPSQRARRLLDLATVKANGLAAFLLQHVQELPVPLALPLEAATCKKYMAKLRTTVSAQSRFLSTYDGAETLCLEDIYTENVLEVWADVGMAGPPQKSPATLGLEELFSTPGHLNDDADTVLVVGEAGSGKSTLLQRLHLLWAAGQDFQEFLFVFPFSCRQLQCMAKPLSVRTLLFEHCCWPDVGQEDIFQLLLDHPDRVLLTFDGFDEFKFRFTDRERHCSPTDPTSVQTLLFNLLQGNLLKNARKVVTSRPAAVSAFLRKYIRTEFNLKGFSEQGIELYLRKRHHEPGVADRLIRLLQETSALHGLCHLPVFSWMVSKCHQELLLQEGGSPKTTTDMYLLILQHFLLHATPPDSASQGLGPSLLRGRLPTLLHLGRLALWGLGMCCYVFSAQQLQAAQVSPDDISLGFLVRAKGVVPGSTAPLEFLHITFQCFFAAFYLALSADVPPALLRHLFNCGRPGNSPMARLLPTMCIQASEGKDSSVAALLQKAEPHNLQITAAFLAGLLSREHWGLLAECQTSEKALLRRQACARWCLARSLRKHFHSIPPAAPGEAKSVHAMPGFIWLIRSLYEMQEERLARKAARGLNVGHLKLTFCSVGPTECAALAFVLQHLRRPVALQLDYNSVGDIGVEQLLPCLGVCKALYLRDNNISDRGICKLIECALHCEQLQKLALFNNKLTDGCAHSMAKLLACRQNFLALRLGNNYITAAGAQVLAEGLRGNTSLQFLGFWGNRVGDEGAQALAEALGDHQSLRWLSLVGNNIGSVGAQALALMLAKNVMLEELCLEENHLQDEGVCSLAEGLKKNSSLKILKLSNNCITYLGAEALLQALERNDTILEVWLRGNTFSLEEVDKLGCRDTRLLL

HEK293 [15] = assay: NOD2 signaling inhibitors in MDP-stimulated cells, cell-based, uHTS, luminescence (AID 2001); assay type: functional; conditions: Homo sapiens
HEK293 [16] = assay: cells; assay type: functional, cell-based; conditions: Homo sapiens; remark: listed apart in the source
Tumor necrosis factor = Tumor necrosis factor (Homo sapiens, UniProt P01375); assay: TNFa-triggered NF-kB activation inhibitors, SAR follow-up, cell-based, revised (AID 2337); assay type: functional
Chain of Tumor necrosis factor (P01375 whole entry, the tested form may be a part): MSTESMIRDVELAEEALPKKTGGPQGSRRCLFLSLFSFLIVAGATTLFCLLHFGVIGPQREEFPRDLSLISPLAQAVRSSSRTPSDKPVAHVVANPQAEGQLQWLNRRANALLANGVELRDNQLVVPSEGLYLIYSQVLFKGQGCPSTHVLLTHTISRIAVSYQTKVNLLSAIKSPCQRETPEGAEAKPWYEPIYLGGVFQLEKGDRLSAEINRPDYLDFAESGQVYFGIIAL

[17] = target: T4, Nucleotide-binding oligomerization domain-containing protein 1 (Homo sapiens, UniProt Q9Y239); assay: NOD1 signaling inhibitors, SAR follow-up, revised (AID 2333); assay type: functional
T4 sequence (Q9Y239 whole entry): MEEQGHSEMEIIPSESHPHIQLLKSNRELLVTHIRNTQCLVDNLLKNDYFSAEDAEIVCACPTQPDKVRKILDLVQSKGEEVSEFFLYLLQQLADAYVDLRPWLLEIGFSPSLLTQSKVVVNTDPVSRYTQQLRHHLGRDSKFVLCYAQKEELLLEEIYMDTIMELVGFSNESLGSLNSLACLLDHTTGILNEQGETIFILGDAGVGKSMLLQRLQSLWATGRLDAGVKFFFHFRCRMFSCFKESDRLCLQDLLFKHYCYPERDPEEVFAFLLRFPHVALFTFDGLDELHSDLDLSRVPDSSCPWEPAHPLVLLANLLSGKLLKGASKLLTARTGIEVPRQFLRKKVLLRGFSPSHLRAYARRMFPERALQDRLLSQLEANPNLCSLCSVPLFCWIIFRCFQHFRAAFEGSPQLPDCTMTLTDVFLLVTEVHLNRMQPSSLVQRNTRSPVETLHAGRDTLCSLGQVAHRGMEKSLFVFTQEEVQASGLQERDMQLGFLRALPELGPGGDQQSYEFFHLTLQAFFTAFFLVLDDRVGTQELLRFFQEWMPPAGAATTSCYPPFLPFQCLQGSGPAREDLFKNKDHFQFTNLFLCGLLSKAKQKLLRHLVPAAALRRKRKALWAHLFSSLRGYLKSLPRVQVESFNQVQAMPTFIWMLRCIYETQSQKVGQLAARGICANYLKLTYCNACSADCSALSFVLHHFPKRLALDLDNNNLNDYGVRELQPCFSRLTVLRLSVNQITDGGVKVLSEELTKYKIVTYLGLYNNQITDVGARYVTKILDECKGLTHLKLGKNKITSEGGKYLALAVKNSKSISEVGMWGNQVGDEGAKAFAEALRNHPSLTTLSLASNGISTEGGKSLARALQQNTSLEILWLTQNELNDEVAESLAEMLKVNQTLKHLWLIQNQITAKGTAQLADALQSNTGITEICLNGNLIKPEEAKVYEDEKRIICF

HEK293 [18] = assay: cells; conditions: Homo sapiens
[19] = target: Glycogen synthase kinase-3 alpha (Homo sapiens, UniProt P49840); assay type: functional;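 also: GSK3A result taken from a broad kinome-wide kinase panel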
Chain of Glycogen synthase kinase-3 alpha (P49840 whole entry): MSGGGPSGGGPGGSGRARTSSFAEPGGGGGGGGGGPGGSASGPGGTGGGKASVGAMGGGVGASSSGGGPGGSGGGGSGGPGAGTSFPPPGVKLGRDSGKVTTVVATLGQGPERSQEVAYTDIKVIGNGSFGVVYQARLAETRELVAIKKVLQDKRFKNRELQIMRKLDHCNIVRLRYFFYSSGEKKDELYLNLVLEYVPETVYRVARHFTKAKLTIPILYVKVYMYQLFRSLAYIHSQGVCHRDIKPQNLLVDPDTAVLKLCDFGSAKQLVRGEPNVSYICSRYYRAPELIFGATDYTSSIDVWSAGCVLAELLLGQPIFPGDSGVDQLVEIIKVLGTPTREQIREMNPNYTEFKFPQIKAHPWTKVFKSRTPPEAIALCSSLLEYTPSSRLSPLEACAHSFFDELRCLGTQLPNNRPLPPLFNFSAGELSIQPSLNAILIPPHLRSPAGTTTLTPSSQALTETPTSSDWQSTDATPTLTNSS

[20] = target: Calcium/calmodulin-dependent protein kinase type II subunit beta (Homo sapiens, UniProt Q13554); assay type: functional
[21] = target: Glycogen synthase kinase-3 beta (Homo sapiens, UniProt P49841); assay type: functional;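 also: value comes from a broad kinome profiling panel, with GSK3B as the panel member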
[22] = target: Dual specificity tyrosine-phosphorylation-regulated kinase 1A (Homo sapiens, UniProt Q13627); assay type: functional;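 also: measured against DYRK1A as one member of a broad kinome profiling panel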
[23] = target: Aryl hydrocarbon receptor (Homo sapiens, UniProt P35869); conditions: Potency;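 also: confirmatory quantitative high-throughput screen measuring activation of the AhR signaling pathway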
Chain of Aryl hydrocarbon receptor (P35869 whole entry): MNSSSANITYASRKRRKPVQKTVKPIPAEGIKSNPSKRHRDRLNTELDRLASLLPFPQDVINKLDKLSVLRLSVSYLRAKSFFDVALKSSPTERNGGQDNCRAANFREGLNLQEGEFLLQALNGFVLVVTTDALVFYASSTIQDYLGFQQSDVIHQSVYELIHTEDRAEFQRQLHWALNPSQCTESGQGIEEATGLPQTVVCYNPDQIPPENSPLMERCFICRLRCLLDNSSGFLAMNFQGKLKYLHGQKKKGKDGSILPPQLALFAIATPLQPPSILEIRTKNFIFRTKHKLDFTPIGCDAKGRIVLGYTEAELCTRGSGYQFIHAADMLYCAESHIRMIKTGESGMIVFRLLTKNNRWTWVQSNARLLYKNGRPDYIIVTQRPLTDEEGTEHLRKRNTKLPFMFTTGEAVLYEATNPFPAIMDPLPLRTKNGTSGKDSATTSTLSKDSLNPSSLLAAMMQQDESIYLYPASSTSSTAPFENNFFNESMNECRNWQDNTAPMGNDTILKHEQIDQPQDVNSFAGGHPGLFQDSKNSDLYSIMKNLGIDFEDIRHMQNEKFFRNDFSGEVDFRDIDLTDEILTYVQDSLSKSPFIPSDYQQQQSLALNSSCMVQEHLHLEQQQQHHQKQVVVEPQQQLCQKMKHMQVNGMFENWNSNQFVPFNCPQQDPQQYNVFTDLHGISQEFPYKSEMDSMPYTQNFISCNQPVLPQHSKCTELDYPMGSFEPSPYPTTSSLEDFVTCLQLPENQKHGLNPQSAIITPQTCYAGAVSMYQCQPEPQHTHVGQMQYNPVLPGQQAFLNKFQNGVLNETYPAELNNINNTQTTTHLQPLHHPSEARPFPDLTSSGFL

Escherichia coli = assay: microbe, parasite or virus in culture
[24] = target: Tyrosine-protein kinase JAK3 (Homo sapiens, UniProt P52333); assay type: functional
Chain of Tyrosine-protein kinase JAK3 (P52333 whole entry): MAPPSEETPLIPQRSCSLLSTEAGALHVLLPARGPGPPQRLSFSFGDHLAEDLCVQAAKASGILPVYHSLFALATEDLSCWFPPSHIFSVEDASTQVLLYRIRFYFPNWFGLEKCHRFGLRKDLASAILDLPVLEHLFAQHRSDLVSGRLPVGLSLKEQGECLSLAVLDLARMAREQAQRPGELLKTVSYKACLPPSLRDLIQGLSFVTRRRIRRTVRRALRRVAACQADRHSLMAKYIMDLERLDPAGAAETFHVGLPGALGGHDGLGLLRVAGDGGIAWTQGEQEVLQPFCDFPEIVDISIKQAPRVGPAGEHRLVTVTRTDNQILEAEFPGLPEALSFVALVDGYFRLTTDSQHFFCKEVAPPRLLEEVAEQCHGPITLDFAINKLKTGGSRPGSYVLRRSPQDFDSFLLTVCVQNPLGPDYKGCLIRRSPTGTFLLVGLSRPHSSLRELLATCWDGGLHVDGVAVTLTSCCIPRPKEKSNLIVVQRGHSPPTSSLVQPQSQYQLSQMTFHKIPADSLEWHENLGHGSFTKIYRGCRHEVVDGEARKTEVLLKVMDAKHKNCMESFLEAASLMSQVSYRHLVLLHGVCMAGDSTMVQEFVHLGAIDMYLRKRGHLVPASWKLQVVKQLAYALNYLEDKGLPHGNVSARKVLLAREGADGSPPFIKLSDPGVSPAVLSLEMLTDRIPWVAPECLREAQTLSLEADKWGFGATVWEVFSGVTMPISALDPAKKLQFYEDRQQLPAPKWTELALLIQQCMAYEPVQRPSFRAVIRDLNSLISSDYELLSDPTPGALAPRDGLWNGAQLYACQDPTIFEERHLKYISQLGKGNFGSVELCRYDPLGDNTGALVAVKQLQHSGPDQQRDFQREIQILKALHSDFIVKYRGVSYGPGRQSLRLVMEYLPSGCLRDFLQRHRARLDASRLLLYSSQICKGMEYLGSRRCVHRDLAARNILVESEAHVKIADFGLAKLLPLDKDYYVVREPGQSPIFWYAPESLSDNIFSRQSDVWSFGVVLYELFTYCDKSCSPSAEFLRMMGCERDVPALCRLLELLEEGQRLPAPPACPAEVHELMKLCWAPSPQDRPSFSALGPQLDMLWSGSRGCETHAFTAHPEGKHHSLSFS

[25] = target: BDNF/NT-3 growth factors receptor (Homo sapiens, UniProt Q16620); assay type: functional;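 also: NTRK2 measured as one member of a broad kinome-wide kinase profiling panel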
[26] = target: Calcium/calmodulin-dependent protein kinase type II subunit alpha (Homo sapiens, UniProt Q9UQM7); assay: Navigating the Kinome. Panel member name: CAMK2A; assay type: functional
Chain of Calcium/calmodulin-dependent protein kinase type II subunit alpha (Q9UQM7 whole entry): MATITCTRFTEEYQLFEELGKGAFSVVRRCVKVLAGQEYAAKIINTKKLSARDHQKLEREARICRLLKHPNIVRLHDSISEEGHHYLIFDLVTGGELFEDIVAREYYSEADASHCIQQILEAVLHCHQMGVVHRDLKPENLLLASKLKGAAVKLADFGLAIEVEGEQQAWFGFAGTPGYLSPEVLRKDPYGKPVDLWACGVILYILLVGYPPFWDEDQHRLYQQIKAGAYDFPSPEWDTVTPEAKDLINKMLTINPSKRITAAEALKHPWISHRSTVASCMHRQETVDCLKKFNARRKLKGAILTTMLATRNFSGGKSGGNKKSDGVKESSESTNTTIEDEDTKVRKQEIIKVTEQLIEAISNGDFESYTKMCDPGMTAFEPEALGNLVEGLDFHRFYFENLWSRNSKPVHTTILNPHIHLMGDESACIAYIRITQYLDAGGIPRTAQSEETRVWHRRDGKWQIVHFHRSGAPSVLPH

[27] = target: Ras and Rab interactor 1/Tyrosine-protein kinase ABL1 (Homo sapiens, UniProt P00519+Q13671); assay type: functional;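 also: biochemical TR-FRET dose-response test measuring inhibition of binding between Rin1 and Abl proteins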
HEK293 [28] = assay: cells; conditions: Homo sapiens; remark: listed apart in the source
HEK293 [29] = assay: cells; conditions: Homo sapiens; remark: listed apart in the source
[30] = Shn3 3'UTR reporter inhibitors, dose response, cell-based, Clone20 osteoblasts, firefly luciferase, cherry-picked (AID 624132); assay type: functional;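 also: firefly luciferase luminescence from reporter carrying the Shn3 3'UTR in osteoblasts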
[31] = HepG2 cell cytotoxicity, dose response, cytotoxicity control for Shn3 inhibitor project, CellTiter-Glo, cherry-picked (AID 624134); assay type: functional, cell-based
[32] = control 3'UTR Renilla luciferase suppression, dose response, counter-screen for Shn3 inhibitor project, cell-based, Clone20-Shn3RL, cherry-picked (AID 624133); assay type: functional
[33] = target: T1, High affinity choline transporter 1; assay: CHT activators, dose response, cell-based, 10-point CRC, membrane potential dye (AID 602376); assay type: functional

Cc1c(/N=C/c2cc(Br)cc(Br)c2O)cccc1C(=O)O
EC50 [1]: > 50 µM (active)
AC50 [2]: 3.56 µM (active)
IC50 [3]: 3.44 µM (active)
IC50 (H9c2): 20 µM (active)
IC50 [4]: 2.67 µM (active)

O=C(NCc1ccco1)/C(=C\C=C\c1ccccc1)NC(=O)c1ccco1
IC50 (HEK293 [5]): > 67.5 µM (inactive)
IC50 [6]: > 67.5 µM (inactive)

Cc1ccsc1CNc1ncnc2ccc(-c3ccc4c(c3)OCO4)cc12
AC50 [7]: 0.00994 µM (active)

c1nc(NCC2CCCO2)c2cc(-c3ccc4c(c3)OCO4)ccc2n1 (configuration not stated)
AC50 [7]: 0.0113 µM (active)

O=c1c2ccccc2[nH]c(=S)n1CCN1CCCCC1
IC50 [3]: 8.77 µM (active)
IC50 [4]: 7.94 µM (active)

COC(=O)c1ccc(Sc2ccc(Cl)cc2)c(N)c1
IC50 [8]: < 0.368 µM (active)
EC50 [9]: > 53 µM (inactive)
IC50 [10]: > 20 µM (inactive)

COc1ccc(CN(C)S(=O)(=O)c2nnc(NC(=O)c3cccc(F)c3)s2)cc1
EC50 (HEK293 [11]): 1.8 µM (active)
IC50 (HEK293 [12]): 17.1 µM (active)
IC50 (HEK293 [13]): > 20 µM (inactive)
EC50 [14]: 12.7 µM (active)
IC50 (HEK293 [15]): 12.3 µM (inactive)
IC50 (HEK293 [16]): > 20 µM (inactive)
IC50 (Tumor necrosis factor): 8.03 µM (active)
IC50 [17]: 6.74 µM (active)
IC50 (HEK293 [18]): > 20 µM (inactive)

O=C1CN=C(c2cccc(Cl)c2)c2c(sc3c2CCCC3)N1
Ki [19]: 3.98 µM (active)
Ki [20]: 6.31 µM (active)
Ki [21]: 3.16 µM (active)
Ki [22]: 2.51 µM (active)

CC1=C(C(=O)OCC2CCCO2)C(c2coc3ccc(Cl)cc3c2=O)C2=C(O)CCCC2=N1 (configuration not stated)
IC50 (HEK293 [5]): > 67.5 µM (inactive)
IC50 [6]: > 67.5 µM (inactive)

O=c1cc(-c2ccc(O)cc2)oc2cc(O)cc(O)c12 [APIGENIN]
AC50 [23]: 35.5 µM (inconclusive) and 28.2 µM (inconclusive)

C=CCC[C@H](Cc1ccc(F)cc1)C(=O)OC[C@@H](C)NC(=O)[C@H](CC=C)CC(=O)NCCO
AC50 (Escherichia coli): > 150 µM (inactive)

Clc1cccc(Nc2nc(N3CCOCC3)nc(-n3cccn3)n2)c1
Ki [24]: 3.16 µM (active)
Ki [25]: 3.16 µM (active)
Ki [26]: 2.51 µM (active)

CC[C@]12c3[nH]c4ccc(OC)cc4c3CCN1C(=O)C(CC(=O)NCC13C[C@H]4C[C@@H](C1)C[C@@H](C3)C4)C[C@@H]2C(=O)N1CCN(C(=O)c2ccco2)CC1 (some centres not stated)
IC50 [27]: 4.2 µM (active)
EC50 (HEK293 [28]): > 59.6 µM (inactive)
EC50 (HEK293 [29]): > 59.6 µM (inactive)

Cc1ccc(C(=O)N2CCCC(CCC(=O)NCc3ccc(F)c(F)c3)C2)cn1 (configuration not stated)
AC50 (Escherichia coli): 33.1 µM (active)

CCN(CC)CCn1c(=N)n(CC(O)COc2cccc(C)c2)c2ccccc21 (configuration not stated)
AC50 [30]: 4.39 µM (active)
AC50 [31]: 21.2 µM (active)
AC50 [32]: 7.45 µM (active)
EC50 [33]: 12.4 µM (active)
